Tests used:
ringworm = experiment: Patient with ringworm treated with topical AICAR (Example 2); assay type: in vivo, human; details: child, 3 g AICAR
Source text: A child (height of 165 cm, weight of 55 kg) presents to their primary care physician with a red and itchy rash on their forearm. The rash is in a circular pattern. The physician diagnoses the patient with ringworm. The physician administers a dose of a topical pharmaceutical containing 3 g of AICAR, an agent that activates TORC1 aggregate formation.

Kog1 = Kog1 foci (Kog1 bodies) resolution in WT cells after glucose starvation; assay type: cell-based, budding yeast; details: cycloheximide (CHX) alone, without glucose repletion
esophageal candidiasis = experiment: Patient with esophageal candidiasis treated with oral phenformin (Example 1); assay type: in vivo, human; details: person, 200 mg phenformin
Method: The physician notes the presence of white plaques on the patient's tongue. The physician diagnoses esophageal candidiasis. The physician administers an oral pharmaceutical containing 200 mg of phenformin, an agent that activates TORC1 aggregate formation.

TORC1 = experiment: DNA microarray measurement of TORC1 pathway output (gene expression) with and without rapamycin; assay type: cell-based, S. cerevisiae; details: salt stress, 0.4M KCl; hog1Δ versus wild-type strain
Method: Previous studies of TOR pathway signaling in stress have been limited to measuring phosphorylation of a single substrate, Sch9. As a result it was not clear whether stress signals inhibit TORC1 activity directly or simply act on one or two TORC1 targets proteins. To help distinguish between these possibilities, the complete output of TORC1 pathway in osmotic stress was measured using DNA microarrays. To do this, the cellular response was monitored with and without the potent TORC1 inhibitor rapamycin in 0.4M KCl and three control conditions: amino acid starvation, nitrogen starvation and log growth conditions.
In osmotic stress, Hog1/p38, the terminal kinase in the HOG pathway, is known to regulate many aspects of the stress response including transcription, chromatin remodeling, cell cycle check-points, and ion and glycerol channel regulation. […]
(a) DNA microarray data comparing the gene expression program activated by KCl stress and the TORC1 inhibitor rapamycin. […] A phosphorylation-induced shift in the electrophoretic mobility of Sch9-3HA was measured by performing a western blot to a SDS-PAGE gel loaded with extract from cells collected before and after treatment with 0.4M KCl, using an anti-HA antibody. […] The experiment described in (b) was carried out in triplicate in wild-type and hog1A strains and the fraction of protein in the phosphorylated state was quantified using densitometry. […]

NC(=O)c1ncn([C@@H]2O[C@H](CO)[C@@H](O)[C@H]2O)c1N [AICAR]
outcome by four days of treatment (ringworm): the rash is gone

C[C@@H]1C[C@@H]([C@H](O)CC2CC(=O)NC(=O)C2)C(=O)[C@@H](C)C1 [cycloheximide]
disaggregation of Kog1 (Kog1): does not trigger disaggregation of Kog1

[H]/N=C(/N)N/C(=N/[H])NCCc1ccccc1 [phenformin]
signs of improvement after one day of treatment (esophageal candidiasis; one day): absence of white plaques on the tongue and no difficulty swallowing
outcome by two days of treatment (esophageal candidiasis; two days): sore throat is gone

CO[C@H]1C[C@@H]2CC[C@@H](C)[C@@](O)(O2)C(=O)C(=O)N2CCCC[C@H]2C(=O)O[C@H]([C@H](C)C[C@@H]2CC[C@@H](O)[C@H](OC)C2)CC(=O)[C@H](C)/C=C(\C)[C@@H](O)[C@@H](OC)C(=O)[C@H](C)C[C@H](C)/C=C/C=C/C=C/1C [rapamycin]
more repression by rapamycin in hog1Δ than wt (TORC1): 4 fold

— patent US20220168328A1, “METHODS AND COMPOSITIONS FOR TREATING EUKARYOTIC INFECTIONS VIA ALTERING AGGREGATION DYNAMICS OF RAPTOR/KOG1” (ARIZONA BOARD OF REGENTS ON BEHALF OF THE UNIVERSITY OF …, priority 2014, published 2022)
